Data published in ChEMBL document CHEMBL1155738, “Suppressors of cancer cell proliferation from fig (Ficus carica) resin: isolation and structure elucidation” (J Nat Prod, 2001).
Activity calls are given as the source filed them. The rule behind the calls is not given here.

These compounds were tested on Raji (assay: Cytotoxicity against human Raji cells at 25 to 50 ug/mL after 3 days by MTT assay).
Assay type: functional, cell-based

| Compound | Activity |
| --- | --- |
| CCCCCCCCCCCCCCCC(=O)OC[C@H]1O[C@@H](O[C@H]2CC[C@@]3(C)C(=CC[C@H]4[C@@H]5CC[C@H]([C@H](C)CC[C@H](CC)C(C)C)[C@@]5(C)CC[C@@H]43)C2)[C@H](O)[C@@H](O)[C@@H]1O | Active |
| CCCCC/C=C/C/C=C/CCCCCCCC(=O)OC[C@H]1O[C@@H](O[C@H]2CC[C@@]3(C)C(=CC[C@H]4[C@@H]5CC[C@H]([C@H](C)CC[C@H](CC)C(C)C)[C@@]5(C)CC[C@@H]43)C2)[C@H](O)[C@@H](O)[C@@H]1O | Active |
| CCCCCCCCCCCCCCCCCC(=O)OC[C@H]1O[C@@H](O[C@H]2CC[C@@]3(C)C(=CC[C@H]4[C@@H]5CC[C@H]([C@H](C)CC[C@H](CC)C(C)C)[C@@]5(C)CC[C@@H]43)C2)[C@H](O)[C@@H](O)[C@@H]1O | Active |
